Measurements: patent US20210145827A1, “ANTIBIOTIC GEL FORMULATION AND METHODS OF PREPARING THE ANTIBIOTIC GEL FORMULATION” (Indiana University Research and Technology Corporation, priority 2015, published 2021)

Assays:
[1] = test system: three-week old E. faecalis biofilm; experiment: biofilm disruption assay on infected dentin samples (Example 2); assay type: cell-based, E. faecalis (ATCC 29212); conditions: immersion 5 minutes
Protocol: Unidentified intact human teeth were collected, stored in 0.1% thymol solution at 4° C., and used within 6 months after obtaining local Institutional Review Board approval (IRB #1409251353). A standardized radicular dentin sample (4×4×1 mm^3) was obtained from each root using a slow diamond saw (IsoMet, Buehler, Lake Bluff, Ill.) under continuous distilled water irrigation. The pulpal side of each specimen was wet-finished with silicon carbide abrasive papers (500-2400 grit, Struers, Cleveland, Ohio). The polished samples were then sonicated in deionized water for 3 minutes, washed with sterile water, wrapped individually with moist cotton pellets, placed in Whirl-pak bags (Sigma-Aldrich, St Louis, Mo.), gas sterilized with ethylene oxide, and stored at 4° C. until used. E. faecalis (ATCC 29212) was grown initially on anaerobic blood agar plates (CDC, BioMerieux, Durham, N.C.). Colonies of E. faecalis were then suspended in brain-heart infusion (BHI) broth supplemented with 5 grams yeast extract/L (BHI-YE) and incubated for 24 hours at 37° C. with 5% CO2. Dentin samples were placed individually in separate wells of a 96-sterile well plate (Fisherbrand, Fischer Scientific) with the pulpal side facing upwards. […] The CFUs/mL were quantified using an automated colony counter (Synbiosis, Inc., Frederick, Md.). Summary statistics were calculated for the log-transformed data from each group. […]

[2] = test system: stem cells from apical papillae and dental pulp stem cells; conditions: 2% CHX; in vitro studies; cited from earlier work

## N=C(NCCCCCCNC(=N)NC(=N)Nc1ccc(Cl)cc1)NC(=N)Nc1ccc(Cl)cc1 [CHX]
[1]; 2% CHX, versus control groups, not complete eradication
  antibiofilm effect (log CFU/mL): significant reduction in E. faecalis biofilm
[2]
  effect on survival and attachment of stem cells from apical and dental pulp: highly unfavorable effects

## OCl [NaOCl, sodium hypochlorite]
[1]; 1.5% NaOCl
  antibiofilm effect (log CFU/mL): complete eradication
